Holding throughout (test): growth of human tumour cells (NCI), 48 h
In experiment [1] the test system is 786-0.
The test system of experiment [2] is SF-539.
Experiment [3] relates to MOLT-4.
Experiment [4] relates to EKVX.
Experiment [5] concerns SNB-19.
Experiment [6] concerns SF-295.
Experiment [7] concerns COLO 205.
In experiment [8] the test system is MDA-MB-435.
In experiment [9] the test system is K562.
Experiment [10] has as its system RPMI-8226.
For experiment [11], the system named is Malme-3M.
The subject of experiment [12] is KM12.
Experiment [13] relates to SF-268.
The test system of experiment [14] is IGROV-1.
Experiment [15] relates to SW-620.
Experiment [16] relates to SK-OV-3.
Experiment [17] deals with OVCAR-5.
Experiment [18] relates to HCT-15.
The subject of experiment [19] is A498.
Experiment [20] relates to UACC-257.

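How tested: cells in 96-well plates exposed to compound for 48 hours at five concentrations. GI50 = concentration required for 50% inhibition of growth.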 The source made the active and inactive calls. No stated cut-off is given here; in the data, active = GI50 up to about 1.1 µM and inactive = higher.

As for `CSc1ncc2c(C#N)c3n(C)c4ccccc4n3c(=O)c2n1`, the GI50 in experiment [1], in experiment [2], in experiment [3], in experiment [4], in experiment [5] and in experiment [6] was > 100 µM (inactive) each time. Also, the GI50 in [7], in experiment [8], in experiment [9], in experiment [10], in experiment [11] and in [12] was > 100 µM (inactive) in each case. Moreover, the GI50 in experiment [13] is > 100 µM (inactive); in experiment [14] it was > 100 µM (inactive); in experiment [15], > 100 µM (inactive); in [16] it was > 100 µM (inactive); in experiment [17], > 100 µM (inactive); in experiment [18] it was over 100 µM. Also, the GI50 in experiment [19] and in experiment [20] was > 100 µM (inactive) each time.
With `N/C(=N\N=C\c1nc2ccccc2o1)c1cnccn1`, the GI50 in experiment [1] is 66.7 µM (inactive); in experiment [2], > 100 µM (inactive); in experiment [3] it was > 100 µM (inactive); in experiment [4], > 100 µM (inactive); in [5] it was > 100 µM (inactive); in experiment [6] it was 87.9 µM (inactive). Further, the GI50 in experiment [7] is > 100 µM (inactive); in experiment [8], > 100 µM (inactive); in [9], > 100 µM (inactive); in experiment [10] it was > 100 µM (inactive); in experiment [11], 1.71 µM (inactive); in experiment [12], > 100 µM (inactive). The GI50 in experiment [13] was > 100 µM (inactive); in experiment [14], > 100 µM (inactive); in experiment [15] it was > 100 µM (inactive); in [16], 42.7 µM (inactive); in experiment [17], > 100 µM (inactive); in experiment [18], over 100 µM. Also, the GI50 in experiment [19] and in experiment [20] was > 100 µM (inactive) each time.
Consider `CN(C)c1ccc2c(SCC(=O)OCC(=O)[C@@]3(O)CC[C@H]4[C@@H]5CCC6=CC(=O)C=C[C@]6(C)[C@H]5C(=O)C[C@@]43C)c3ccc(N(C)C)cc3nc2c1`, for which the GI50 in experiment [1] is 4.16 µM (inactive); in experiment [2] it was 6.19 µM (inactive); in experiment [3], 2.65 µM (inactive); in experiment [4], 18.1 µM (inactive); in experiment [5] it was 23.7 µM (inactive); in experiment [6] it was 14 µM (inactive). The GI50 in experiment [7] was 5.79 µM (inactive); in experiment [8], 17 µM (inactive); in experiment [9], 2.64 µM (inactive); in [10], 14.6 µM (inactive); in [11] it was > 100 µM (inactive); in experiment [12], 6.5 µM (inactive). Besides, the GI50 in experiment [13] is 5.82 µM (inactive); in experiment [14], 6.52 µM (inactive); in experiment [15], 6.19 µM (inactive); in experiment [16] it was 27.4 µM (inactive); in experiment [17] it was 32.1 µM (inactive); in experiment [18] it was 3.3 µM. Also, the GI50 is > 54.3 µM (inactive) in experiment [19] and 15.7 µM (inactive) in [20].
`COC(=O)C1C(=O)C=CN([C@H](C)c2ccccc2)[C@@H]1Cc1ccc(OC)c(OCc2ccccc2)c1I` (stereo not given in full): the GI50 in [1] was 16.4 µM (inactive); in experiment [2], 19.4 µM (inactive); in experiment [3] it was 8.79 µM (inactive); in experiment [4], 23.6 µM (inactive); in experiment [5] it was 15 µM (inactive); in [6], 16.9 µM (inactive). The GI50 in [7] was 14.9 µM (inactive); in experiment [8], 17 µM (inactive); in [9], 18.2 µM (inactive); in experiment [10] it was 14.9 µM (inactive); in [11], 24.4 µM (inactive); in experiment [12] it was 19.2 µM (inactive). For the same compound, the GI50 in experiment [13] is 14.9 µM (inactive); in experiment [14] it was 10.2 µM (inactive); in experiment [15], 27.7 µM (inactive); in experiment [16] it was 34 µM (inactive); in experiment [17], 27.4 µM (inactive); in experiment [18], 7.1 µM. Besides, the GI50 in experiment [19] is 14.5 µM (inactive); in experiment [20] it was 18.2 µM (inactive).
Consider `O=C1c2ccccc2C(=O)c2c(NCC3CO3)cccc21` (stereo not given), for which the GI50 in [1] is 12.2 µM (inactive); in [2] it was > 45.3 µM (inactive); in experiment [3] it was 3.77 µM (inactive); in experiment [4], 17.5 µM (inactive); in experiment [5] it was > 57.3 µM (inactive); in [6], 26.5 µM (inactive). For the same compound, the GI50 is > 53.1 µM (inactive) in [7]; 7.59 µM (inactive) in [8]; 6.62 µM (inactive) in experiment [9]; 33.2 µM (inactive) in experiment [10]; > 80.5 µM (inactive) in [11]; 18.6 µM (inactive) in experiment [12]. The GI50 in experiment [13] is 7.5 µM (inactive); in [14], 17.4 µM (inactive); in experiment [15], 5.57 µM (inactive); in [16], > 95.7 µM (inactive); in [17], > 71.3 µM (inactive); in [18] it was 7.23 µM. Further, the GI50 in [19] was 34.4 µM (inactive); in experiment [20], > 56.2 µM (inactive).
Regarding `Cc1ccc([N+](=O)[O-])cc1S(=O)(=O)Nc1ccc(C2=NNC(c3ccccc3)C2)cc1` (stereo not given), the GI50 is 20.8 µM (inactive) in experiment [1]; 28.1 µM (inactive) in experiment [2]; 6.64 µM (inactive) in experiment [3]; 21 µM (inactive) in experiment [4]; 30.9 µM (inactive) in experiment [5]; 3.02 µM (inactive) in experiment [6]. Further, the GI50 in experiment [7] is 16.9 µM (inactive); in [8], 17.1 µM (inactive); in experiment [9] it was 6.73 µM (inactive); in [10], 7.24 µM (inactive); in experiment [11], 17 µM (inactive); in experiment [12] it was 13.4 µM (inactive). The GI50 was 16.8 µM (inactive) in experiment [13]; 16.3 µM (inactive) in [14]; 25.4 µM (inactive) in experiment [15]; 15.5 µM (inactive) in [16]; 53.2 µM (inactive) in experiment [17]; 10.4 µM in experiment [18]. The GI50 in [19] is 13.2 µM (inactive); in experiment [20], 15.8 µM (inactive).
With `O=S(=O)(O)/C(=N\c1cccc(Cc2ccccc2)c1)Nc1cccc(Cc2ccccc2)c1`, the GI50 in experiment [1] is 15.2 µM (inactive); in experiment [2], 16.3 µM (inactive); in experiment [3], 32.1 µM (inactive); in experiment [4], 16.7 µM (inactive); in [5], 21.2 µM (inactive); in [6] it was 18.2 µM (inactive). The GI50 in [7] was 18.3 µM (inactive); in experiment [8] it was 20.1 µM (inactive); in [9] it was 31.4 µM (inactive); in experiment [10], 23.8 µM (inactive); in experiment [11], 17.5 µM (inactive); in experiment [12] it was 17.3 µM (inactive). The GI50 was 17.7 µM (inactive) in experiment [13]; 16.6 µM (inactive) in [14]; 23.7 µM (inactive) in experiment [15]; 21 µM (inactive) in [16]; 18.1 µM (inactive) in experiment [17]; 17.6 µM in experiment [18]. Also, the GI50 was 22.4 µM (inactive) in [19] and 24.2 µM (inactive) in experiment [20].
`CC(=O)OC[C@@]1(C)[C@@H]2[C@@H]3[C@@]4(CO[C@]3(C)C(=O)[C@@]3(O)C[C@H](C)[C@H](OC(C)=O)[C@@H]3[C@H]4OC(C)=O)[C@H](OC(=O)c3ccccc3)C[C@@H]21`: the GI50 in experiment [1], in [2], in experiment [3], in experiment [4], in experiment [5] and in experiment [6] was > 100 µM (inactive) in each case. Further, the GI50 in experiment [7], in [8], in experiment [9], in [10], in [11] and in experiment [12] was > 100 µM (inactive) each time. The GI50 is > 100 µM (inactive) in experiment [13]; > 100 µM (inactive) in [14]; > 100 µM (inactive) in experiment [15]; > 100 µM (inactive) in experiment [16]; > 100 µM (inactive) in [17]; over 100 µM in experiment [18]. The GI50 in [19] and in experiment [20] was > 100 µM (inactive) in each case.
For `NCC(O)CNCC/C=C\C/C=C\C/C=C\C/C=C\C/C=C\C/C=C\CCCCC/C=C\CCNCC(O)CN` (stereo not given), the GI50 in [1] is 1.69 µM (inactive); in [2] it was 1.9 µM (inactive); in experiment [3], 1.24 µM (inactive); in [4], 0.731 µM (active); in experiment [5] it was 1.9 µM (inactive); in [6] it was 2.07 µM (inactive). In addition, the GI50 is 1.96 µM (inactive) in experiment [7]; 1.65 µM (inactive) in experiment [8]; 2.29 µM (inactive) in experiment [9]; 1.66 µM (inactive) in experiment [10]; 1.94 µM (inactive) in experiment [11]; 1.58 µM (inactive) in experiment [12]. The GI50 is 1.83 µM (inactive) in experiment [13]; 1.71 µM (inactive) in [14]; 1.78 µM (inactive) in [15]; 2.64 µM (inactive) in experiment [16]; 1.94 µM (inactive) in experiment [17]; 1.6 µM in experiment [18]. For the same compound, the GI50 was 1.83 µM (inactive) in experiment [19] and 2.13 µM (inactive) in [20].
Turning to `COc1ccc(/C=C/c2cnnc3ccccc23)cc1OC`, the GI50 in [1], in [2], in experiment [3], in experiment [4], in experiment [5] and in experiment [6] was > 10 µM (inactive) in each case. In addition, the GI50 in [7], in [8], in experiment [9], in experiment [10], in experiment [11] and in [12] was > 10 µM (inactive) throughout. Also, the GI50 is > 10 µM (inactive) in [13]; > 10 µM (inactive) in experiment [14]; > 10 µM (inactive) in [15]; > 10 µM (inactive) in experiment [16]; > 10 µM (inactive) in experiment [17]; over 10 µM in experiment [18]. The GI50 in [19] and in experiment [20] was > 10 µM (inactive) throughout.

For the origin of these results see ChEMBL document CHEMBL1201862, “PubChem BioAssay data set” (2004).
